Measured values from patent US8551507B2, “Terpene glycosides and their combinations as solubilizing agents” (Board of Supervisors of Louisiana State University And …, priority 2009, dated 2013).
Converted amounts (≈) assume the structure as drawn. Like-named read-outs stand apart in the source and are kept apart here.

Tests used:
[1] = 72 h
[2] = physchem; conditions: 25 °C, water, thermodynamic from solid
[3] = Merck Index, Material Safety Data Sheets or general statement, cited from earlier work
[4] = Solubility test: low-solubility compound in water or in water solutions containing 10% w/v natural solubilizer, quantified by HPLC/LC-MS; conditions: 25° C. 72 hr; for Concentration in water solution With Geniposide: 10% w/v geniposide in water; for Concentration in water solution With Mogroside V: 10% w/v mogroside V in water; for Concentration in water solution With Paeoniflorin: 10% w/v paeoniflorin in water; for Concentration in water solution With Rebaudioside A: 10% w/v rebaudioside A in water; for Concentration in water solution With Rubusoside: 10% w/v rubusoside in water
[5] = physchem; conditions: water
[6] = Safety of daily consumption of steviol glycosides (estimates based on aglycone steviol); assay type: in vivo
[7] = in vivo; cited from earlier work
[8] = test system: hypertensive rats; conditions: intraperitoneal, 50 mg/kg and 100 mg/kg body weight, hypertensive rats (Hsu et al. 2002); cited from earlier work
[9] = cyclodextrins, comparison; cited from earlier work

SMILES | Concentration in water solution With Astragaloside [1] | Concentration in water solution With Geniposide [1] | Concentration in water solution With Mogroside V [1] | Concentration in water solution With Paeoniflorin [1] | Concentration in water solution With Rubusoside [1] | Water solubility in words [3] | other results
C[C@@H]1CC[C@H]2[C@@H](C)C(=O)O[C@@H]3O[C@@]4(C)CC[C@@H]1[C@]32OO4 [Artemisinin, artemisinin, reference compound] | 0 ng/mL | 146000 ng/mL | 148000 ng/mL | 218000 ng/mL | 280000 ng/mL | poorly soluble | solubility at 72 h [2]: 53 µg/mL (≈ 0.188 mM); Water solubility in words ([3]; listed as artemisinin): insoluble
CC[C@@]1(O)C(=O)OCc2c1cc1n(c2=O)Cc2cc3ccccc3nc2-1 [Camptothecin, camptothecin] | – | – | – | – | – | poor solubility in water | Concentration in water solution With Geniposide [4]: 25000 ng/mL; Concentration in water solution With Mogroside V [4]: 18000 ng/mL; Concentration in water solution With Paeoniflorin [4]: 53000 ng/mL; Concentration in water solution With Paeoniflorin ([4]; listed as camptothecin): 54000 ng/mL; Concentration in water solution With Rebaudioside A [4]: 48000 ng/mL; Concentration in water solution With Rubusoside [4]: 61000 ng/mL; Water solubility in words ([3]; listed as camptothecin): insoluble
Cc1ccc(-c2cc(C(F)(F)F)nn2-c2ccc(S(N)(=O)=O)cc2)cc1 [Celecoxib, celecoxib, reference compound] | 0 ng/mL | 3000 ng/mL | 47000 ng/mL | 253000 ng/mL | 488000 ng/mL | poor solubility in water | Solubility in water without solubilizer [1]: 0^2 μg/mL; Water solubility in words ([3]; listed as celecoxib): water insoluble
CC(C)/N=c1\cc2n(-c3ccc(Cl)cc3)c3ccccc3nc-2cc1Nc1ccc(Cl)cc1 [Clofazimine, clofazimine, reference compound] | 400 ng/mL | 48000 ng/mL | 58000 ng/mL | 565000 ng/mL | 132000 ng/mL | practically insoluble in water | Concentration in water solution With Rebaudioside A [1]: 109000 ng/mL; Concentration in water solution With Steviol monoside [1]: 0 ng/mL; Concentration in water solution With Stevioside [1]: 64000 ng/mL; solubility at 72 h [2]: 7.6 µg/mL (≈ 0.0161 mM)
COC1=C(OC)C(=O)C(C/C=C(\C)CC/C=C(\C)CC/C=C(\C)CC/C=C(\C)CC/C=C(\C)CC/C=C(\C)CC/C=C(\C)CC/C=C(\C)CC/C=C(\C)CCC=C(C)C)=C(C)C1=O [Coenzyme Q10, coenzyme Q10] | – | – | – | – | 111000 ng/mL | insolubility in water | –
COc1cc(/C=C/C(=O)CC(=O)/C=C/c2ccc(O)c(OC)c2)ccc1O [Curcumin, curcumin] | 0 ng/mL | 4000 ng/mL | 44000 ng/mL | 5000 ng/mL | 262000 ng/mL | insoluble in water | Concentration in water solution With Steviol monoside [1]: 4000 ng/mL; Water solubility in words ([3]; listed as curcumin): insoluble
C[C@H]1O[C@@H](O[C@H]2[C@@H](O)C[C@H](O[C@H]3[C@@H](O)C[C@H](O[C@H]4CC[C@@]5(C)[C@H](CC[C@@H]6[C@@H]5C[C@@H](O)[C@]5(C)[C@@H](C7=CC(=O)OC7)CC[C@]65O)C4)O[C@@H]3C)O[C@@H]2C)C[C@H](O)[C@@H]1O [Digoxin, digoxin] | – | – | – | – | – | – | solubility [2]: 19 µg/mL (≈ 0.0243 mM)
CO[C@H]1C[C@H](O[C@H]2CC[C@@]3(C)[C@H](CC[C@@H]4[C@@H]3CC[C@]3(C)[C@@H](C5=CC(=O)OC5)[C@@H](OC(C)=O)C[C@]43O)C2)O[C@@H](C)[C@@H]1O [Oleandrin, oleandrin] | – | – | – | – | – | practically insoluble in water | Concentration in water solution With Geniposide [4]: 28000 ng/mL; Concentration in water solution With Mogroside V [4]: 47000 ng/mL; Concentration in water solution With Paeoniflorin [4]: 42000 ng/mL; Concentration in water solution With Rebaudioside A [4]: 67000 ng/mL; Concentration in water solution With Rubusoside [4]: 123000 ng/mL; Concentration in water solution With Stevioside ([4]; 10% w/v stevioside in water): 74000 ng/mL; Concentration in water solution With Astragaloside ([4]; nominal 10% w/v astragaloside IV in water (precipitated, less than 10%)): 5000 ng/mL; Concentration in water solution With Steviol monoside ([4]; nominal 10% w/v steviol monoside in water (precipitated, less than 10%)): 7000 ng/mL; solubility [2]: 3 µg/mL (≈ 0.0052 mM)
CC(=O)O[C@H]1C(=O)[C@@]2(C)[C@H]([C@H](OC(=O)c3ccccc3)[C@]3(O)C[C@H](OC(=O)[C@H](O)[C@@H](NC(=O)c4ccccc4)c4ccccc4)C(C)=C1C3(C)C)[C@]1(OC(C)=O)CO[C@@H]1C[C@@H]2O [Paclitaxel, paclitaxel, reference compound] | – | 1000 ng/mL | 7000 ng/mL | 20000 ng/mL | 65000 ng/mL | not soluble in water | Concentration in water solution With Rebaudioside A [1]: 26000 ng/mL; Water solubility in words ([3]; listed as paclitaxel): insoluble
C=C1C[C@@]23CC[C@H]4[C@@](C)(CCC[C@@]4(C)C(=O)O[C@@H]4O[C@H](CO)[C@@H](O)[C@H](O)[C@H]4O)[C@@H]2CC[C@]1(O[C@@H]1O[C@H](CO)[C@@H](O)[C@H](O)[C@H]1O)C3 [Rubusoside, b-D-glucosyl ester of 13-O-b-D-glucosyl-steviol] | – | – | – | – | – | good solubility in water | solubility ([5]; 25 °C): ~400000 µg/mL (≈ 622 mM); solubility ([5]; 37 °C): ~800000 µg/mL (≈ 1240 mM); No-observed-effect level ([6]; estimate based on 383 mg/kg body weight daily expressed as steviol): up to 766 mg rubusoside/kg body weight; Daily consumption that is safe and has no adverse effect ([6]; estimate based on the aglycone steviol): 8 mg rubusoside/kg body weight
COc1cc(C2Oc3cc([C@H]4Oc5cc(O)cc(O)c5C(=O)[C@@H]4O)ccc3OC2CO)ccc1O (some centres unmarked) [Silybin, silybin] | 0 ng/mL | 16000 ng/mL | 18000 ng/mL | 37000 ng/mL | 150000 ng/mL | – | Solubility in water without solubilizer [1]: 0^2 μg/mL
Cc1coc2c1C(=O)C(=O)c1c-2ccc2c1CCCC2(C)C [Tanshinone IIA, tanshinone IIA] | 0 ng/mL | 100 ng/mL | 500 ng/mL | 23000 ng/mL | 127000 ng/mL | – | Solubility in water without solubilizer [1]: 0^2 μg/mL
CCC(C)n1ncn(-c2ccc(N3CCN(c4ccc(OCC5COC(Cn6cncn6)(c6ccc(Cl)cc6Cl)O5)cc4)CC3)cc2)c1=O (centres unmarked) [itraconazole, reference compound] | – | – | – | – | – | practically insoluble in water | –
C=C1C[C@@]23CC[C@H]4[C@@](C)(CCC[C@@]4(C)C(=O)O)[C@@H]2CC[C@]1(O)C3 [steviol] | – | – | – | – | – | – | No-observed-effect level expressed as steviol [7]: 383 mg/kg body weight daily
C=C1C[C@@]23CC[C@H]4[C@@](C)(CCC[C@@]4(C)C(=O)O[C@@H]4O[C@H](CO)[C@@H](O)[C@H](O)[C@H]4O)[C@@H]2CC[C@]1(O[C@@H]1O[C@H](CO)[C@@H](O)[C@H](O)[C@H]1O[C@@H]1O[C@H](CO)[C@@H](O)[C@H](O)[C@H]1O)C3 [stevioside] | – | – | – | – | – | – | Adverse effects [8]: no adverse effects
OC[C@H]1O[C@@H]2O[C@H]3[C@H](O)[C@@H](O)[C@@H](O[C@H]4[C@H](O)[C@@H](O)[C@@H](O[C@H]5[C@H](O)[C@@H](O)[C@@H](O[C@H]6[C@H](O)[C@@H](O)[C@@H](O[C@H]7[C@H](O)[C@@H](O)[C@@H](O[C@H]1[C@H](O)[C@H]2O)O[C@@H]7CO)O[C@@H]6CO)O[C@@H]5CO)O[C@@H]4CO)O[C@@H]3CO [α-CD] | – | – | – | – | – | – | Solubility in water [9]: 15 g/100 mL
